Data: PubChem BioAssay (NCI)
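Method: 48-hour compound exposure of cells in 96-well plates, five concentrations, linear interpolation of endpoints. TGI is the concentration that stops growth completely.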

Columns and labels:
Test in all cases: NCI tumour cell line growth inhibition, 48 h
UACC-62 melanoma = tested on: UACC-62 melanoma
LOX IMVI melanoma = tested on: LOX IMVI melanoma
SNB-75 CNS = tested on: SNB-75 CNS
KM12 colon = tested on: KM12 colon
CCRF-CEM leukemia = tested on: CCRF-CEM leukemia
NCI/ADR-RES ovarian = tested on: NCI/ADR-RES ovarian
HCC-2998 colon = tested on: HCC-2998 colon
A498 renal = tested on: A498 renal
DMS 273 small cell lung = tested on: DMS 273 small cell lung
P388 leukemia = tested on: P388 leukemia
NCI-H226 lung = tested on: NCI-H226 lung
HCT-15 colon = tested on: HCT-15 colon
SF-539 CNS = tested on: SF-539 CNS
SK-MEL-2 melanoma = tested on: SK-MEL-2 melanoma
K-562 leukemia = tested on: K-562 leukemia
RXF 393 renal = tested on: RXF 393 renal
OVCAR-5 ovarian = tested on: OVCAR-5 ovarian
XF 498 CNS = tested on: XF 498 CNS
DMS 114 small cell lung = tested on: DMS 114 small cell lung
NCI-H460 lung = tested on: NCI-H460 lung
HOP-92 NSCLC = tested on: HOP-92 NSCLC
DLD-1 colon = tested on: DLD-1 colon
SK-MEL-5 melanoma = tested on: SK-MEL-5 melanoma
CAKI-1 renal = tested on: CAKI-1 renal
SK-OV-3 ovarian = tested on: SK-OV-3 ovarian
HL-60(TB) leukemia = tested on: HL-60(TB) leukemia
HOP-18 NSCLC = tested on: HOP-18 NSCLC
HCT-116 colon = tested on: HCT-116 colon
SW-620 colon = tested on: SW-620 colon
IGROV1 ovarian = tested on: IGROV1 ovarian
MOLT-4 leukemia = tested on: MOLT-4 leukemia
RPMI-8226 leukemia = tested on: RPMI-8226 leukemia
COLO 205 colon = tested on: COLO 205 colon
KM20L2 colon = tested on: KM20L2 colon
MALME-3M melanoma = tested on: MALME-3M melanoma
P388/ADR leukemia = tested on: P388/ADR leukemia
HT29 colon = tested on: HT29 colon
OVCAR-4 ovarian = tested on: OVCAR-4 ovarian
SN12K1 renal = tested on: SN12K1 renal
SNB-19 CNS = tested on: SNB-19 CNS
SN12C renal = tested on: SN12C renal
OVCAR-3 ovarian = tested on: OVCAR-3 ovarian
HOP-62 NSCLC = tested on: HOP-62 NSCLC
SNB-78 CNS = tested on: SNB-78 CNS
M19-MEL melanoma = tested on: M19-MEL melanoma
OVCAR-8 ovarian = tested on: OVCAR-8 ovarian
NCI-H23 lung = tested on: NCI-H23 lung
SF-268 CNS = tested on: SF-268 CNS
UACC-257 melanoma = tested on: UACC-257 melanoma
NCI-H522 lung = tested on: NCI-H522 lung
UO-31 renal = tested on: UO-31 renal
U251 CNS = tested on: U251 CNS
SK-MEL-28 melanoma = tested on: SK-MEL-28 melanoma
MCF7 breast = tested on: MCF7 breast
A549 NSCLC = tested on: A549 NSCLC
SF-295 CNS = tested on: SF-295 CNS
EKVX NSCLC = tested on: EKVX NSCLC

SMILES: C=C1C[C@@H](O)C[C@@]2(C)C[C@@H]3OC(=O)C(=C)[C@@H]3C[C@H]12
- TGI (UACC-62 melanoma): 21 µM
- TGI (LOX IMVI melanoma): 21.5 µM
- TGI (SNB-75 CNS): > 35.5 µM
- TGI (KM12 colon): 28.6 µM
- TGI (CCRF-CEM leukemia): > 36.1 µM
- TGI (NCI/ADR-RES ovarian): 28.4 µM
- TGI (HCC-2998 colon): 14.2 µM
- TGI (A498 renal): 36.8 µM
- TGI (DMS 273 small cell lung): 20.5 µM
- TGI (P388 leukemia): 8.87 µM
- TGI (NCI-H226 lung): 37.7 µM
- TGI (HCT-15 colon): 18.2 µM
- TGI (SF-539 CNS): 23.1 µM
- TGI (SK-MEL-2 melanoma): 39.3 µM
- TGI (K-562 leukemia): > 100 µM
- TGI (RXF 393 renal): 20.3 µM
- TGI (OVCAR-5 ovarian): 28 µM
- TGI (XF 498 CNS): 4.71 µM
- TGI (DMS 114 small cell lung): 23.5 µM
- TGI (NCI-H460 lung): > 58.6 µM
- TGI (HOP-92 NSCLC): 28.1 µM
- TGI (DLD-1 colon): > 36.6 µM
- TGI (SK-MEL-5 melanoma): 11.7 µM
- TGI (CAKI-1 renal): 14.1 µM
- TGI (SK-OV-3 ovarian): > 81.9 µM
- TGI (HL-60(TB) leukemia): 5.94 µM
- TGI (HOP-18 NSCLC): 15.9 µM
- TGI (HCT-116 colon): 11.9 µM
- TGI (SW-620 colon): 18.1 µM
- TGI (IGROV1 ovarian): 28.8 µM
- TGI (MOLT-4 leukemia): 16.1 µM
- TGI (RPMI-8226 leukemia): 34.5 µM
- TGI (COLO 205 colon): 3.02 µM
- TGI (KM20L2 colon): 25.4 µM
- TGI (MALME-3M melanoma): 13.4 µM
- TGI (P388/ADR leukemia): 31.8 µM
- TGI (HT29 colon): 10.8 µM
- TGI (OVCAR-4 ovarian): 31.4 µM
- TGI (SN12K1 renal): 35.7 µM
- TGI (SNB-19 CNS): 26.4 µM
- TGI (SN12C renal): 19.6 µM
- TGI (OVCAR-3 ovarian): 35.2 µM
- TGI (HOP-62 NSCLC): 53.4 µM
- TGI (SNB-78 CNS): 37.3 µM
- TGI (M19-MEL melanoma): > 100 µM
- TGI (OVCAR-8 ovarian): 46.6 µM
- TGI (NCI-H23 lung): 35.4 µM
- TGI (SF-268 CNS): 14.4 µM
- TGI (UACC-257 melanoma): 15.9 µM
- TGI (NCI-H522 lung): 21.6 µM
- TGI (UO-31 renal): 31.2 µM
- TGI (U251 CNS): 39.9 µM
- TGI (SK-MEL-28 melanoma): 14 µM
- TGI (MCF7 breast): 24.8 µM
- TGI (A549 NSCLC): 81 µM
- TGI (SF-295 CNS): 54.6 µM

SMILES: C/C(=N\NS(=O)(=O)c1ccccc1)c1ccccc1
- TGI (UACC-62 melanoma): > 100 µM
- TGI (LOX IMVI melanoma): > 100 µM
- TGI (SNB-75 CNS): > 100 µM
- TGI (KM12 colon): > 100 µM
- TGI (CCRF-CEM leukemia): > 100 µM
- TGI (NCI/ADR-RES ovarian): > 100 µM
- TGI (HCC-2998 colon): > 100 µM
- TGI (A498 renal): > 100 µM
- TGI (DMS 273 small cell lung): > 100 µM
- TGI (P388 leukemia): > 100 µM
- TGI (NCI-H226 lung): > 100 µM
- TGI (HCT-15 colon): > 100 µM
- TGI (SF-539 CNS): > 100 µM
- TGI (SK-MEL-2 melanoma): > 100 µM
- TGI (K-562 leukemia): > 100 µM
- TGI (RXF 393 renal): > 100 µM
- TGI (OVCAR-5 ovarian): > 100 µM
- TGI (XF 498 CNS): > 100 µM
- TGI (DMS 114 small cell lung): > 100 µM
- TGI (NCI-H460 lung): > 100 µM
- TGI (HOP-92 NSCLC): > 100 µM
- TGI (DLD-1 colon): > 100 µM
- TGI (SK-MEL-5 melanoma): > 100 µM
- TGI (CAKI-1 renal): > 100 µM
- TGI (SK-OV-3 ovarian): > 100 µM
- TGI (HL-60(TB) leukemia): > 100 µM
- TGI (HOP-18 NSCLC): > 100 µM
- TGI (HCT-116 colon): > 100 µM
- TGI (SW-620 colon): > 100 µM
- TGI (EKVX NSCLC): > 100 µM
- TGI (IGROV1 ovarian): > 100 µM
- TGI (MOLT-4 leukemia): > 100 µM
- TGI (RPMI-8226 leukemia): > 100 µM
- TGI (COLO 205 colon): > 100 µM
- TGI (KM20L2 colon): > 100 µM
- TGI (MALME-3M melanoma): > 100 µM
- TGI (P388/ADR leukemia): > 100 µM
- TGI (HT29 colon): > 100 µM
- TGI (OVCAR-4 ovarian): > 100 µM
- TGI (SN12K1 renal): > 100 µM
- TGI (SNB-19 CNS): > 100 µM
- TGI (SN12C renal): > 100 µM
- TGI (OVCAR-3 ovarian): > 100 µM
- TGI (HOP-62 NSCLC): > 100 µM
- TGI (SNB-78 CNS): > 100 µM
- TGI (OVCAR-8 ovarian): > 100 µM
- TGI (NCI-H23 lung): > 100 µM
- TGI (SF-268 CNS): > 100 µM
- TGI (UACC-257 melanoma): > 100 µM
- TGI (NCI-H522 lung): > 100 µM
- TGI (UO-31 renal): > 100 µM
- TGI (U251 CNS): > 100 µM
- TGI (SK-MEL-28 melanoma): > 100 µM
- TGI (MCF7 breast): > 100 µM
- TGI (A549 NSCLC): > 100 µM
- TGI (SF-295 CNS): > 100 µM
